Assay type in all cases: organism-based
For data set [1], the system named is Vigna angularis. The data set is described as follows: Phytotoxicity in Vigna angularis (adzuki bean) assessed as seed moisture content at 1000 g ai/ha after 42 days applied as spray (reference value: 13.9%). Particulars: in vivo, other, 1008 h, at 1000 g/ha.
In data set [2] the test system is Vigna angularis. The data set is described as follows: Phytotoxicity in Vigna angularis (adzuki bean) assessed as shoot dry weight at 1000 g ai/ha measured per 1 m row after 42 days applied as spray (reference value: 153 g). The note with it: in vivo, other, 1008 h.
Data set [3] deals with Vigna angularis. The data set is described as follows: Phytotoxicity in Vigna angularis (adzuki bean) assessed as visual injury at 500 g ai/ha after 7 days applied as spray relative to untreated control. Particulars: in vivo, other, 168 h.
In data set [4] the test system is Vigna angularis. The data set is described as follows: Phytotoxicity in Vigna angularis (adzuki bean) assessed as shoot dry weight at 500 g ai/ha measured per 1 m row after 42 days applied as spray (reference value: 153 g). Particulars: in vivo, other, 1008 h.
The test system of data set [5] is Vigna angularis. The data set is described as follows: Phytotoxicity in Vigna angularis (adzuki bean) assessed as crop yield at 500 g ai/ha measured during post emergence applied as spray (reference value: 2.05 t/ha). Particulars: in vivo, other.
For data set [6], the system named is Vigna angularis. The data set is described as follows: Phytotoxicity in Vigna angularis (adzuki bean) assessed as visual injury at 500 g ai/ha after 28 days applied as spray relative to untreated control. Particulars: in vivo, other, 672 h.
Data set [7] has as its system Vigna angularis. The data set is described as follows: Phytotoxicity in Vigna angularis (adzuki bean) assessed as plant height at 1000 g ai/ha after 28 days applied as spray (RVB = 34 cm). The note with it: in vivo, other, 672 h.
For data set [8], the system named is Vigna angularis. The experiment in a line: Phytotoxicity in Vigna angularis (adzuki bean) assessed as seed moisture content at 500 g ai/ha after 42 days applied as spray (reference value: 13.9%). The note with it: in vivo, other, 1008 h, at 500 g/ha.
Data set [9] has as its system Vigna angularis. The experiment in a line: Phytotoxicity in Vigna angularis (adzuki bean) assessed as visual injury at 1000 g ai/ha after 28 days applied as spray relative to untreated control. The note with it: in vivo, other, 672 h.
The test system of data set [10] is Vigna angularis. The data set is described as follows: Phytotoxicity in Vigna angularis (adzuki bean) assessed as crop yield at 1000 g ai/ha measured during post emergence applied as spray (reference value: 2.05 t/ha). Particulars: in vivo, other.
The subject of data set [11] is Vigna angularis. The experiment in a line: Phytotoxicity in Vigna angularis (adzuki bean) assessed as visual injury at 1000 g ai/ha after 14 days applied as spray relative to untreated control. Particulars: in vivo, other, 336 h.
Data set [12] relates to Vigna angularis. The experiment in a line: Phytotoxicity in Vigna angularis (adzuki bean) assessed as visual injury at 500 g ai/ha after 14 days applied as spray relative to untreated control. The note with it: in vivo, other, 336 h.
The test system of data set [13] is Vigna angularis. The data set is described as follows: Phytotoxicity in Vigna angularis (adzuki bean) assessed as plant height at 500 g ai/ha after 28 days applied as spray (RVB = 34 cm). The note with it: in vivo, other, 672 h.
Data set [14] concerns Vigna angularis. The experiment in a line: Phytotoxicity in Vigna angularis (adzuki bean) assessed as visual injury at 1000 g ai/ha after 7 days applied as spray relative to untreated control. Particulars: in vivo, other, 168 h.
For data set [15], the system named is Vigna angularis. The experiment in a line: Phytotoxicity in Vigna angularis (adzuki bean) assessed as visual injury at 2160 g ai/ha after 28 days applied as spray relative to untreated control. The note with it: in vivo, other, 672 h.
Data set [16] deals with Vigna angularis. The experiment in a line: Phytotoxicity in Vigna angularis (adzuki bean) assessed as visual injury at 2160 g ai/ha after 14 days applied as spray relative to untreated control. Particulars: in vivo, other, 336 h.
Data set [17] relates to Vigna angularis. The data set is described as follows: Phytotoxicity in Vigna angularis (adzuki bean) assessed as visual injury at 1080 g ai/ha after 7 days applied as spray relative to untreated control. The note with it: in vivo, other, 168 h.
In data set [18] the test system is Vigna angularis. The experiment in a line: Phytotoxicity in Vigna angularis (adzuki bean) assessed as visual injury at 2160 g ai/ha after 7 days applied as spray relative to untreated control. The note with it: in vivo, other, 168 h.
Data set [19] concerns Vigna angularis. The experiment in a line: Phytotoxicity in Vigna angularis (adzuki bean) assessed as decrease in plant height at 2160 g ai/ha after 28 days applied as spray relative to untreated control. The arrangement: scale not given: the % may be the effect or the level left. The note with it: in vivo, other, 672 h.
Data set [20] has as its system Phaseolus vulgaris. The data set is described as follows: Phytotoxicity in Phaseolus vulgaris (white navy bean) assessed as decrease in crop yield relative to untreated control. Particulars: in vivo.
Data set [21] concerns Phaseolus vulgaris. The data set is described as follows: Phytotoxicity in Phaseolus vulgaris (cranberry bean) assessed as visual injury at 1080 g ai/ha applied as spray during post emergence after 7 days relative to untreated control. The note with it: in vivo, other, 168 h.
The test system of data set [22] is Vigna angularis. The experiment in a line: Phytotoxicity in Vigna angularis (adzuki bean) assessed as visual injury at 1080 g ai/ha after 14 days applied as spray relative to untreated control. The note with it: in vivo, other, 336 h.
The test system of data set [23] is Vigna angularis. The data set is described as follows: Phytotoxicity in Vigna angularis (adzuki bean) assessed as decrease in shoot dry weight at 1080 g ai/ha after 42 days applied as spray relative to untreated control. The arrangement: scale not given: the % may be the effect or the level left. Particulars: in vivo, other, 1008 h.
The test system of data set [24] is Phaseolus vulgaris. The experiment in a line: Phytotoxicity in Phaseolus vulgaris (black bean) assessed as visual injury at 1080 g ai/ha applied as spray during post emergence after 7 days relative to untreated control. Particulars: in vivo, other, 168 h.
Data set [25] deals with Vigna angularis. The experiment in a line: Phytotoxicity in Vigna angularis (adzuki bean) assessed as decrease in plant height at 1080 g ai/ha after 28 days applied as spray relative to untreated control. The note with it: in vivo, other, 672 h. Also noted: scale not given: the % may be the effect or the level left.
Data set [26] concerns Vigna angularis. The experiment in a line: Phytotoxicity in Vigna angularis (adzuki bean) assessed as seed moisture content at 2160 g ai/ha after 42 days applied as spray (reference value: 13.9%). The note with it: in vivo, other, 1008 h, at 2160 g/ha.
The subject of data set [27] is Vigna angularis. The data set is described as follows: Phytotoxicity in Vigna angularis (adzuki bean) assessed as visual injury at 1080 g ai/ha after 28 days applied as spray relative to untreated control. The note with it: in vivo, other, 672 h.
Data set [28] concerns Vigna angularis. The data set is described as follows: Phytotoxicity in Vigna angularis (adzuki bean) assessed as decrease in shoot dry weight at 2160 g ai/ha after 42 days applied as spray relative to untreated control. The note with it: in vivo, other, 1008 h. Also noted: scale not given: the % may be the effect or the level left.
For data set [29], the system named is Vigna angularis. The data set is described as follows: Phytotoxicity in Vigna angularis (adzuki bean) assessed as decrease in crop yield at 1080 g ai/ha measured during post emergence applied as spray relative to untreated control. Particulars: in vivo, other.
Data set [30] deals with Vigna angularis. The experiment in a line: Phytotoxicity in Vigna angularis (adzuki bean) assessed as decrease in crop yield at 2160 g ai/ha measured during post emergence applied as spray relative to untreated control. The note with it: in vivo, other.
For data set [31], the system named is Phaseolus vulgaris. The data set is described as follows: Phytotoxicity in Phaseolus vulgaris (dry bean) assessed as visual injury at 1080 g ai/ha applied as spray during post emergence relative to untreated control. The note with it: in vivo, other.
In data set [32] the test system is Vigna angularis. The experiment in a line: Phytotoxicity in Vigna angularis (adzuki bean) assessed as seed moisture content at 1080 g ai/ha after 42 days applied as spray (reference value: 13.9%). The note with it: in vivo, other, 1008 h, at 1080 g/ha.

With `CCC/C(=N\OCC)C1=C(O)CC(CC(C)SCC)CC1=O` (configuration not stated) [SETHOXYDIM], the Activity in the data set on Vigna angularis [1] is reported as 14.3%; in the data set with Vigna angularis [2], 142 g; in the data set with Vigna angularis [3], 3.7%; with Vigna angularis [4], 134 g; with Vigna angularis [6], 0.4%; in the data set with Vigna angularis [7], 32.8 cm. Besides, the Activity in the data set with Vigna angularis [8] came out at 14.1%; with Vigna angularis [9], 1.1%; in the data set with Vigna angularis [11] it was 3.6%; in the data set on Vigna angularis [12], 1.6%; in the data set on Vigna angularis [13] it was 33.1 cm; with Vigna angularis [14] it was 4.9%. Further, the Crop_yield in the data set on Vigna angularis [5] is reported as 2.04 tons/ha; with Vigna angularis [10] it was 1.95 tons/ha.
Take `CC(C)N1C(=O)c2ccccc2NS1(=O)=O` [BENTAZON]: the Activity is recorded as 38.1% in the data set on Vigna angularis [15]; 43.5% in the data set with Vigna angularis [16]; 29.5% with Vigna angularis [17]; 36.4% with Vigna angularis [18]; 43% with Vigna angularis [19]; below 2% in the data set with Phaseolus vulgaris [21]. The Activity with Vigna angularis [22] was 33.2%; in the data set on Vigna angularis [23], 60%; with Phaseolus vulgaris [24], below 3%; in the data set with Vigna angularis [25] it was 37%; with Vigna angularis [26] it was 15.3%; in the data set with Vigna angularis [27], 29.8%. Moreover, the Activity with Vigna angularis [28] is given as 65%; with Phaseolus vulgaris [31] it was 3%; in the data set on Vigna angularis [32] it was 15%. Moreover, the Crop_yield entry in the data set on Phaseolus vulgaris [20] is reported as “<= 21%”; in the data set with Vigna angularis [29] it was 48%; with Vigna angularis [30], 56%.

These data come from ChEMBL document CHEMBL3044665, “Adzuki bean (Vigna angularis) responses to post-emergence herbicides” (Crop Prot, 2006).
